Values quoted from earlier work, collected in patent US12343354B2, “Injection containing p-boronophenylalanine” (Stella Pharma Corporation, priority 2019, dated 2025).

Conditions: physiological pH

solubility: very poor solubility
SMILES: N[C@@H](Cc1ccc(B(O)O)cc1)C(=O)O [p-Boronophenylalanine, p-boronophenylalanine]
